The target of one test is MMP 13 (Homo sapiens, UniProt P45452). Description: MMP 13 inhibition (HTS; method not described). In kind it is biochemical. The following applies: HTS; for inhibition at 0.2 µM: read-out: MMP 13 % inhibition at 0.2 µM (HTS); for inhibition at 0.036 µM: read-out: MMP 13 % inhibition at 36 nM (HTS); for MMP 13 % inhibition at 36 nM (HTS) / inhibition at 0.036 µM: 36 nM.
For a further test, the target named is T1, TACE (Homo sapiens, UniProt P78536).
T1 construct: purchased Immunex
T1 sequence (P78536 215-824): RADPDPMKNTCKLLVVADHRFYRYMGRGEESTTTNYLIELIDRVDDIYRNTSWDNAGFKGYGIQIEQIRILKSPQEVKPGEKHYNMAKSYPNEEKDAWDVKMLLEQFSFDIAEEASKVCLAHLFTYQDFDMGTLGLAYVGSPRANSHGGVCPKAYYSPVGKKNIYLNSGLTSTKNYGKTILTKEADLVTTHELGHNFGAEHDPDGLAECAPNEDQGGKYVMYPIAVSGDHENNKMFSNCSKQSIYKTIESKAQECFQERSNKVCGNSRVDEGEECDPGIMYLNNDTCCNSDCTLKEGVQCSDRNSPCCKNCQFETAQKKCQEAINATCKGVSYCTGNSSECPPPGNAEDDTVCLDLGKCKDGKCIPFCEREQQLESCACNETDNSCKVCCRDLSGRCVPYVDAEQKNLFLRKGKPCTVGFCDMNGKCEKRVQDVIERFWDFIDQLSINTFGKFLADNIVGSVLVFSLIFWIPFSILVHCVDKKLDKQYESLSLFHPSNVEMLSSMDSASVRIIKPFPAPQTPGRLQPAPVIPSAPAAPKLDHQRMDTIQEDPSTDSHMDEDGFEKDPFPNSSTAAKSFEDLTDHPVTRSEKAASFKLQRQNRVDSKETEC
Description: Procedure for Measuring TACE Inhibition. It is filed as biochemical. The following applies: 1 µM; for inhibition at 1 µM: read-out: TACE % inhibition at 1 µM. The protocol:
Using 96-well black microtiter plates, each well receives a solution composed of 10 µL TACE (Immunex, final concentration 1µg/mL), 70µL Tris buffer, pH 7.4 containing 10% glycerol (final concentration 10 mM), and 10 µL of test compound solution in DMSO (final concentration 1µM, DMSO concentration <1%) and incubated for 10 minutes at room temperature. The reaction is initiated by addition of a fluorescent peptidyl substrate (final concentration 100 µM) to each well and then shaking on a shaker for 5 sec. The reaction is read (excitation 340 nm, emission 420 nm) for 10 min. and the increase in fluorescence over time is plotted as a linear line. The slope of the line is calculated and represents the reaction rate. The linearity of the reaction rate is confirmed (r^2 >0.85). The mean (x±sem) of the control rate is calculated and compared for statistical significance (p<0.05) with drug-treated rates using Dunnett's multiple comparison test.

The inhibition is the change of the read-out against control, counted positive when it falls.

Read-outs that look alike come from different tables or passages of the source.

Consider “2,5-Dichloro-thiophene-3-sulfonic acid 4-(1-hydroxycarbamoyl-heptylsulfanyl)-hydroxyamide [Example 233]”, for which the “MMP 13 % inhibition at 36 nM (HTS)” value on MMP 13 was found to be 33%. Further, on TACE (Examples 169-240), the “TACE % inhibition at 1 µM” value was determined as 19.8%.
For the molecule “3-Bromo-2-chloro-thiophene-2-sulfonic acid 4-(1-hydroxycarbamoyl-heptylsulfonyl)-hydroxyamide [Example 239]”, the “MMP 13 % inhibition at 36 nM (HTS)” value at MMP 13 turned out to be 54%. Further, the “TACE % inhibition at 1 µM” value at TACE (Examples 169-240) was 45.9%.
Take “5-Chloro-1,3-dimethyl-1H-pyrazole-4-sulfonic acid 4-(1-hydroxycarbamoyl-heptylsulfinyl)-hydroxyamide [Example 235]”: the “MMP 13 % inhibition at 36 nM (HTS)” value on MMP 13 was found to be 59%. For the same molecule, the “TACE % inhibition at 1 µM” value at TACE (Examples 169-240) amounted to 48.3%.
Taken in the same sequence, the figures for “5-Pyridin-2-yl-thiophene-2-sulfonic acid 4(1-hydroxycarbamoyl-heptylsulfinyl)-hydroxy amide [Example 237]” were 55% and 38.2%.
`COc1ccc(S(=O)(=O)C(C)C(=O)NO)cc1` (stereo not drawn) [Example 110, N-Hydroxy-2-(4-methoxy-benzenesulfonyl)-propionamide]: the inhibition at 0.2 µM on MMP 13 came out at 75%. The inhibition at 1 µM on TACE (Examples 110-168) worked out at 17.6%.
On to `COc1ccc(SC(C)C(=O)NO)cc1` (stereo not drawn) [Example 111, N-Hydroxy-2-(4-methoxy-benzenesulfanyl)-propionamide], for which the “MMP 13 % inhibition at 0.2 µM (HTS)” value on MMP 13 amounted to 10%. In addition, the “TACE % inhibition at 1 µM” value on TACE (Examples 110-168) is 40.4%.
In the case of `CC(C)CCSC(C)C(=O)NO` (stereo not drawn) [Example 112, N-Hydroxy-2-(3-methyl-butane-1-sulfanyl)-propionamide], the “MMP 13 % inhibition at 0.2 µM (HTS)” value on MMP 13 worked out at 50%. Moreover, on TACE (Examples 110-168), the “TACE % inhibition at 1 µM” value came out at 33.7%.
In the case of `CC(C)CCS(=O)(=O)C(C)C(=O)NO` (stereo not drawn) [Example 113, N-Hydroxy-2-(3-methyl-butane-1-sulfonyl)-propionamide], the inhibition at 0.2 µM on MMP 13 was 0%. In addition, at TACE (Examples 110-168), the inhibition at 1 µM amounted to 13.1%.
The corresponding values for `CC(C)C(Sc1ccc2ccccc2c1)C(=O)NO` (stereo not drawn) [Example 114, N-hydroxy-3-methyl-2-(naphthalen-2-ylsulfanyl)-butyramide] are 0% and 0%.
For the molecule `CC(C)C(C(=O)NO)[S+]([O-])c1ccc2ccccc2c1` (stereo not drawn) [Example 115, N-Hydroxy-3-methyl-2-(naphthalen-2-ylsulfinyl)-butyramide], on MMP 13, the inhibition at 0.2 µM is 0%. On TACE (Examples 110-168), the inhibition at 1 µM came out at 0%.
On to `CC(C)C(C(=O)NO)S(=O)(=O)c1ccc2ccccc2c1` (stereo not drawn) [Example 116, N-Hydroxy-3-methyl-2-(naphthalen-2-ylsulfonyl)-butyramide], for which, at MMP 13, the inhibition at 0.2 µM worked out at 0%. In addition, on TACE (Examples 110-168), the inhibition at 1 µM was found to be 9.1%.
The corresponding values for `CC(C)C(C(=O)NO)S(=O)(=O)CCc1ccccc1` (stereo not drawn) [Example 118, N-Hydroxy-3-methyl-2-phenethylsulfonyl-butyramide] are 24% and 16.7%.
Regarding `CCC(SCC(=O)OC)C(=O)NO` (stereo not drawn) [Example 119, (1-Hydroxycarbamoyl-propane-1-sulfanyl)-acetic acid methyl ester], at MMP 13, the “MMP 13 % inhibition at 0.2 µM (HTS)” value is recorded as 0%. Besides, on TACE (Examples 110-168), the “TACE % inhibition at 1 µM” value came out at 7.8%.
On to `O=C(NO)C(Cc1ccccc1)[S+]([O-])c1ccc(O)cc1` (stereo not drawn) [Example 126, 2-(4-Hydroxybenzenesulfinyl)-N-hydroxy-3-phenyl-propionamide], for which the inhibition at 0.2 µM at MMP 13 is 25%. In addition, the inhibition at 1 µM on TACE (Examples 110-168) turned out to be 10.4%.
Regarding `O=C(NO)C(Cc1ccccc1)S(=O)(=O)c1ccc(O)cc1` (stereo not drawn) [Example 127, 2-(4-Hydroxybenzenesulfonyl)-N-hydroxy-3-phenyl-propionamide], the inhibition at 0.2 µM on MMP 13 worked out at 47%. Further, the inhibition at 1 µM on TACE (Examples 110-168) came to 29.2%.
Taken in the same sequence, the figures for `CC(=O)Nc1ccc(S(=O)(=O)C(Cc2ccccc2)C(=O)NO)cc1` (stereo not drawn) [Example 130, 2-(4-Acetylamino-benzenesulfonyl)-N-hydroxy-3-phenyl-propionamide] were 28% and 27.9%.
Turning to `O=C(CCC(Sc1ccc(Br)cc1)C(=O)NO)NO` (stereo not drawn) [Example 134, 4-Hydroxycarbamoyl-4-(4-bromo-benzenesulfanyl)-butyric acid hydroxyamide], the “MMP 13 % inhibition at 0.2 µM (HTS)” value at MMP 13 stood at 25%. For the same molecule, at TACE (Examples 110-168), the “TACE % inhibition at 1 µM” value is given as -9.31%.
In the case of `O=C(CCC(C(=O)NO)S(=O)(=O)c1ccc(Br)cc1)NO` (stereo not drawn) [Example 136, 4-Hydroxycarbamoyl-4-(4-bromo-benzenesulfonyl)-butyric acid hydroxyamide], the inhibition at 0.2 µM at MMP 13 was found to be 89%. Besides, the inhibition at 1 µM on TACE (Examples 110-168) is 42.7%.
With `O=C(CCC(Sc1ccccc1C(F)(F)F)C(=O)NO)NO` (stereo not drawn) [Example 137, 4-Hydroxycarbamoyl-4-(2-trifluoromethyl-benzenesulfanyl)-butyric acid hydroxyamide], the “MMP 13 % inhibition at 0.2 µM (HTS)” value at MMP 13 was 83%. The “TACE % inhibition at 1 µM” value on TACE (Examples 110-168) was 13.35%.
For the molecule `CS(=O)(=O)c1ccc(S(=O)(=O)C(COCc2ccccc2)C(=O)NO)cc1` (stereo not drawn) [Example 148, 3-Benzyloxy-N-hydroxy-2-(4-methanesulfonyl-benzenesulfonyl)-propionamide], the inhibition at 0.2 µM at MMP 13 was found to be 15%. In addition, the inhibition at 1 µM at TACE (Examples 110-168) stood at 43.5%.
Taken in the same sequence, the figures for `O=C(NO)C(COCc1ccccc1)SCc1ccccc1Cl` (stereo not drawn) [Example 149, 3-Benzyloxy-N-hydroxy-2-(2-chloro-benzylsulfanyl)-propionamide] were 13% and 4.41%.
`O=C(NO)C(COCc1ccccc1)[S+]([O-])Cc1ccccc1Cl` (stereo not drawn) [Example 150, 3-Benzyloxy-N-hydroxy-2-(2-chloro-benzylsulfinyl)-propionamide]: the inhibition at 0.2 µM at MMP 13 was 54%. Further, the inhibition at 1 µM on TACE (Examples 110-168) was 1.82%.
Turning to `O=C(NO)C(COCc1ccccc1)S(=O)(=O)Cc1ccccc1Cl` (stereo not drawn) [Example 151, 3-Benzyloxy-N-hydroxy-2-(2-chloro-benzylsulfonyl)-propionamide], the inhibition at 0.2 µM at MMP 13 amounted to 6%. For the same molecule, at TACE (Examples 110-168), the inhibition at 1 µM is 5.93%.
For the molecule `O=C(NO)C(Cc1cnc[nH]1)[S+]([O-])c1ccc(Br)cc1` (stereo not drawn) [Example 153, 2-(4-bromo-benzenesulfinyl)-N-hydroxy-3-(3H-imidazol-4-yl)-propionamide], the inhibition at 0.2 µM at MMP 13 amounted to 12%. The inhibition at 1 µM at TACE (Examples 110-168) is 11.8%.
As to `O=C(NO)C(Cc1cnc[nH]1)S(=O)(=O)c1ccc(Cl)cc1` (stereo not drawn) [Example 154, 2-(4-chloro-benzenesulfonyl)-N-hydroxy-3-(3H-imidazol-4-yl)-propionamide], at MMP 13, the inhibition at 0.2 µM came out at 89%. Moreover, the inhibition at 1 µM on TACE (Examples 110-168) was found to be 13.1%.
Consider `N=C(N)NCCCC(C(=O)NO)[S+]([O-])c1cccc(F)c1` (stereo not drawn) [Example 156, 2-(3-Fluorophenylsulfinyl)-5-guanidino-pentanoic acid hydroxyamide], for which the inhibition at 0.2 µM at MMP 13 worked out at 23%. Also, at TACE (Examples 110-168), the inhibition at 1 µM is -2.09%.
Turning to `CCCCCCC(C(=O)NO)S(=O)(=O)c1cc(Cl)ccc1Cl` (stereo not drawn) [Example 161, 2-(2,5-Dichlorobenzenesulfonyl)-octanoic acid hydroxyamide], the inhibition at 0.2 µM at MMP 13 amounted to 0%. The inhibition at 1 µM at TACE (Examples 110-168) worked out at 12.7%.
Turning to `CCCCCCC(C(=O)NO)[S+]([O-])c1cccc(OC)c1` (stereo not drawn) [Example 163, 2-(3-Methoxybenzenesulfinyl)-octanoic acid hydroxyamide], the inhibition at 0.2 µM on MMP 13 came out at 84%. For the same molecule, on TACE (Examples 110-168), the inhibition at 1 µM is 9.52%.
Consider `CCCCCCC(C(=O)NO)[S+]([O-])c1ccc(OC)c(OC)c1` (stereo not drawn) [Example 166, 2-(3,4-Dimethoxybenzenesulfinyl)-octanoic acid hydroxyamide], for which the inhibition at 0.2 µM at MMP 13 was found to be 9%. Further, the inhibition at 1 µM on TACE (Examples 110-168) was 4.16%.
Turning to `CCCCCCC(C(=O)NO)S(=O)(=O)c1ccc(OC)c(OC)c1` (stereo not drawn) [Example 167, 2-(3,4-Dimethoxybenzenesulfonyl)-octanoic acid hydroxyamide], the inhibition at 0.2 µM on MMP 13 was found to be 27%. Moreover, the inhibition at 1 µM at TACE (Examples 110-168) is 8.96%.
Take `CCCCCCC(Sc1nc(-c2ccccc2)cs1)C(=O)NO` (stereo not drawn) [Example 172, 2-(4-Phenyl-thiazole-2-sulfanyl)-octanoic acid hydroxyamide]: at MMP 13, the “MMP 13 % inhibition at 36 nM (HTS)” value turned out to be 34%. Moreover, the “TACE % inhibition at 1 µM” value on TACE (Examples 169-240) is 29.4%.
In the case of `CCCCCCC(SCCc1cnccn1)C(=O)NO` (stereo not drawn) [Example 175, 2-(2-Pyrazin-2-yl-ethylsulfanyl)-octanoic acid hydroxyamide], the inhibition on MMP 13 (read-out: MMP 13 % inhibition (HTS)) is 37%. The inhibition at 0.036 µM on MMP 13 came to 16%. On TACE (Examples 169-240), the inhibition at 1 µM worked out at 32.9%.
For the molecule `CCCCCCC(Sc1nnnn1C)C(=O)NO` (stereo not drawn) [Example 176, 2-(1-Methyl-1H-tetrazol-5-ylsulfanyl)-octanoic acid hydroxyamide], the inhibition at 0.036 µM at MMP 13 turned out to be 6%. Also, the inhibition at 1 µM at TACE (Examples 169-240) was found to be 26.6%.
Take `CCCCCCC(C(=O)NO)S(=O)(=O)c1ccc(OS(=O)(=O)c2ccccc2[N+](=O)[O-])cc1` (stereo not drawn) [Example 238, 2-Nitro-benzenesulfonic acid 4-(1-hydroxycarbamoyl-heptylsulfonyl)-hydroxyamide]: the inhibition at 0.036 µM on MMP 13 came to 22%.
In the case of “(1-Hydroxycarbamoyl-propane-1-sulfinyl)-propionic acid hydroxyamide [Example 123]”, the “MMP 13 % inhibition at 0.2 µM (HTS)” value on MMP 13 was 0%.

(Values after patent publication EP0970046B1, “N-HYDROXY-2-(ALKYL, ARYL, OR HETEROARYL SULFANYL, SULFINYL OR SULFONYL)-3-SUBSTITUTED ALKYL, ARYL OR HETEROARYLAMIDES AS MATRIX METALLOPROTEINASE INHIBITORS” (Wyeth Holdings Corporation, priority 1997, dated 1998).)
